Literature values, collected in patent US20040039036A1, “Water-soluble liquid internal medicine” (priority 2000, published 2004).

Conditions: JP-A-11-193233 injectable solution, famotidine 1 mg/mL; after preservation at 40° C. for 2 months

residual rate: 96.6%
Structure (SMILES): NC(N)=Nc1nc(CSCCC(N)=NS(N)(=O)=O)cs1 [famotidine]
